We go through 35 compounds from US20070072874A1, “Aminoheteroaryl compounds as protein kinase inhibitors” (Sugen, Inc., priority 2003, published 2007).

pIC50, pKi: −log10 of the molar value.

One test deals with T1, HGFR (c-MET) (Homo sapiens, UniProt P08581).
T1 construct: purchased Upstate 14-526
T1 sequence (P08581 25-1390): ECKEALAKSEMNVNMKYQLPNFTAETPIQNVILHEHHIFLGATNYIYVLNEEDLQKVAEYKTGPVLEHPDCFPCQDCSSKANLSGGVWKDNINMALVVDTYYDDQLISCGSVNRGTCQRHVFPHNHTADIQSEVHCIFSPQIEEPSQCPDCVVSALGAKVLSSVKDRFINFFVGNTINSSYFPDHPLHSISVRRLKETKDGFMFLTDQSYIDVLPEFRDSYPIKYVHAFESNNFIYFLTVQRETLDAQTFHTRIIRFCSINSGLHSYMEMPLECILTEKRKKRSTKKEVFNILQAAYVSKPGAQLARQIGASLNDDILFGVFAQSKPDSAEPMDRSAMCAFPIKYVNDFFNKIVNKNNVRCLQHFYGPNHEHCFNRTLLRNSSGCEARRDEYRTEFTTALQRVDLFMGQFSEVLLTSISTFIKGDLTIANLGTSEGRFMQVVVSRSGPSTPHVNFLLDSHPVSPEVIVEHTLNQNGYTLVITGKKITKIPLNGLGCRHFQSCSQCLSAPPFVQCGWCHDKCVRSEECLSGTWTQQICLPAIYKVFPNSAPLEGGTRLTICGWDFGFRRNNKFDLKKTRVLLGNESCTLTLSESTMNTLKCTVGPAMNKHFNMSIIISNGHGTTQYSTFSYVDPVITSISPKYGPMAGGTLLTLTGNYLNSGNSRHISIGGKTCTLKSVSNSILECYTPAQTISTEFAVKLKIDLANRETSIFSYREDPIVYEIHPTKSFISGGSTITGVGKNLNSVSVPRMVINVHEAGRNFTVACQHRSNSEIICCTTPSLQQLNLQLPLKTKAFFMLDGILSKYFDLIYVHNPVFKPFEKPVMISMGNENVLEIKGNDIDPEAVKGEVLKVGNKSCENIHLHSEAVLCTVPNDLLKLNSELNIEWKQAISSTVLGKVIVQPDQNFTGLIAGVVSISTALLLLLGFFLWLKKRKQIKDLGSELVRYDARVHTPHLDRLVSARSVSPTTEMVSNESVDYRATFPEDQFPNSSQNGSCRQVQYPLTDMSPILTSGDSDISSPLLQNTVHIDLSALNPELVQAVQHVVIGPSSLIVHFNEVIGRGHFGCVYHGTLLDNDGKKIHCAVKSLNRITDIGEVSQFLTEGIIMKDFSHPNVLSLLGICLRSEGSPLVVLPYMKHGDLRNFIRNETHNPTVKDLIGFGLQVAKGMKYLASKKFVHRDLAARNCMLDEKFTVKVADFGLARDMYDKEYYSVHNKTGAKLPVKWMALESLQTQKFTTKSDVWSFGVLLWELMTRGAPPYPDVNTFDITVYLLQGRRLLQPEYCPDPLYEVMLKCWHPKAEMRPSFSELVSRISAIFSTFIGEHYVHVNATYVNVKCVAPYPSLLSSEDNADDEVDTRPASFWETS
Put plainly: HGFR continuous-coupled spectrophotometric assay (Ki and % inhibition). Type of test: biochemical. As to conditions: Table 3, column 'Ki(μM) or I(%)': values without % sign; read-out: Ki.
Consider `CC(Oc1cc(-c2ccc(CN3C[C@@H](C)O[C@@H](C)C3)cc2)cnc1N)c1c(Cl)ccc(F)c1Cl` (stereo partly drawn) [Example I-571, 3-[1-(2,6-Dichloro-3-fluoro-phenyl)-ethoxy]-5-(4-((2R,6S)-2,6-dimethyl-morpholin-4-ylmethyl)-phenyl]-pyridin-2-ylamine], for which the Ki amounted to 0.27 µM.
As to `CC(Oc1cc(-c2ccc(CN3CCOCC3)cc2)cnc1N)c1c(Cl)ccc(F)c1Cl` (centres unmarked) [Example I-572, 3-[1-(2,6-Dichloro-3-fluoro-phenyl)-ethoxy]-(4-morpholin-4-ylmethyl-phenyl)-pyridin-2-ylamine], the Ki amounted to 0.554 µM.
On the same count and under the same terms, the figure for `CCN1CCN(C(=O)c2ccc(-c3cnc(N)c(OC(C)c4c(Cl)ccc(F)c4Cl)c3)cc2)CC1` (centres unmarked) [Example I-633, (4-{6-Amino-5-[1-(2,6-dichloro-3-fluoro-phenyl)-ethoxy]-pyridin-3-yl}-phenyl)-(4-ethyl-piperazin-1-yl)-methanone] is 0.0472 µM; for `Nc1ncc(-c2ccc(C(=O)N3CCC(N4CCCC4)CC3)cc2)cc1OCc1ccc(-c2ccccc2)cc1` [Example I-651] it is 1.53 µM.

The same test, now with this note: at 50 nM; Table 5, library products of procedure 40, crude reaction stock; read-out: % inhibition (percent c-MET inhibition).
Consider `CC(Oc1cc(-c2ccc(C(=O)N3CCCCC3CCO)cc2)cnc1N)c1c(Cl)ccc(F)c1Cl` [Example L-47], for which the inhibition at 0.05 µM is 63%.
Turning to `CC(Oc1cc(-c2ccc(C(=O)N(C)CCO)cc2)cnc1N)c1c(Cl)ccc(F)c1Cl` [Example L-104], the inhibition at 0.05 µM was 69%.
For `CC(C)OCCNC(=O)c1ccc(-c2cnc(N)c(OC(C)c3c(Cl)ccc(F)c3Cl)c2)cc1` [Example L-140], the inhibition at 0.05 µM was determined as 64%.

The same test, now with this note: at 1 μM; Table 8, library products of procedure 43, crude reaction stock; read-out: % inhibition (percent c-MET inhibition).
`CC1CN(C(=O)c2ccc(-c3cnc(N)c(COc4cc(F)ccc4C(F)(F)F)c3)cc2)CC(C)N1` (centres unmarked): the inhibition at 1 µM was found to be 17%.
Same read-out and setting: then `CC1CN(C(=O)c2ccc(-c3cnc(N)c(OCc4nc5cc(C(F)(F)F)ccc5s4)c3)cc2)CC(C)N1` (centres unmarked), with 27%.

Staying with this test, now noted: cells marked "Ki"; read-out: Ki (printed in the Met IC50 column).
`CC(Oc1cc(-c2ccc(OCC(=O)N3CCN(C(=O)OC(C)(C)C)CC3)cc2)cnc1N)c1c(Cl)ccc(F)c1Cl` (centres unmarked) [Example I-479, 4-[2-(4-{8-Amino-5-[1-(2,6-dichloro-3-fluoro-phenyl)-ethoxy]-pyridin-3-yl}-phenoxy)-acetyl]-piperazine-1-carboxylic acid tert-butyl ester]: the pKi was 7.80.

Staying with this test, now noted: read-out: % (inhibition) at 1 μM (printed in the Met IC50 column), at 1 μM.
For the compound `CC(Oc1cc(-c2ccc(C(=O)N3CCN(C)CC3)cc2)cnc1N)c1cccc(F)c1C(F)(F)F` (centres unmarked) [Example I-442, (4-{6-Amino-5-[1-(3-fluoro-2-trifluoromethyl-phenyl)-ethoxy]-pyridin-3-yl}-phenyl)-(4-methyl-piperazin-1-yl)-methanone], the inhibition at 1 µM stood at 16%.
On the same count and under the same terms, the figure for `CC(Oc1cc(-c2ccc(C(=O)N3CCC(N4CCCC4)CC3)cc2)cnc1N)c1cccc(F)c1C(F)(F)F` (centres unmarked) [Example I-443, (4-{6-Amino-5-[1-(3-fluoro-2-trifluoromethyl-phenyl)-ethoxy]-pyridin-3-yl}-phenyl)-(4-pyrrolidin-1-yl-piperidin-1yl)-methanone] is 13%; for `CC(Oc1cc(-c2ccc(C(=O)N3C[C@@H](C)N[C@@H](C)C3)cc2)cnc1N)c1cccc(F)c1C(F)(F)F` (stereo partly drawn) [Example I-444, (4-{6-Amino-5-[1-(3-fluoro-2-trinuommethyl-phenyl)-ethoxy]-pyridin-3-yl}-phenyl)-((3R,5S)-3,5-dimethyl-piperazin-1-yl)-methanone] it is 10%.
Same read-out and setting: then `CC(Oc1cc(-c2ccc(C(=O)N3CCC[C@H]3CN3CCCC3)cc2)cnc1N)c1cccc(F)c1C(F)(F)F` (stereo partly drawn) [Example I-445, (4-{6-Amino-5-[1-(3-fluoro-2-trifluoromethyl-phenyl)-ethoxy]-pyuidin-3-yl}-phenyl)-((S)-2-pyrrolidin-1-ylmethyl-pyrrolidin-1-yl)-methanone], with 15%; and `CC(Oc1cc(-c2ccc(C(=O)N3CCC[C@@H]3CN3CCCC3)cc2)cnc1N)c1cccc(F)c1C(F)(F)F` (stereo partly drawn) [Example I-446, (4-{6 Amino-5-[1-(3-fluoro-2-trifluoromethyl-phenyl)-ethoxy]pyridin-3-yl}-phenyl)-((R) 2 pyrrolidin-1-ylmethyl-pyrrolidin-1-yl)-methanone], with 12%.
The same measure, in the same setting: the figure for `CC(Oc1cc(-c2ccc(C(=O)NC3CCN(C)CC3)cc2)cnc1N)c1cccc(F)c1C(F)(F)F` (centres unmarked) [Example I-449, 4-{6-Amino-5-[1-(3-fluoro-2-trifluoromethyl-phenyl)-ethoxy]pyridin-3-yl}-N-[1-methylpiperidin-4-yl)-benzamide] is 12%; for `CC(Oc1cc(-c2ccc(C(=O)NCCN3CCCC3)cc2)cnc1N)c1cccc(F)c1C(F)(F)F` (centres unmarked) [Example I-450, 4-{6-Amino-5-[1-(3-fluoro-2-trifluoromethyl-phenyl)-ethoxy]-pyridin-3-yl}-N-(2-pyrrolidin-1-yl-ethyl)-benzamide] it is 7%.
In the case of `CC(Oc1cc(-c2ccc(C(=O)NCCN3CCOCC3)cc2)cnc1N)c1cccc(F)c1C(F)(F)F` (centres unmarked) [Example I-451, 4-{6-Amino-5-[1-(3-fluoro-2-trifluoromethyl-phenyl)-ethoxy]-pyridin-3-yl}-N-(2-morpholin-4-yl-ethyl)-benzamide], the inhibition at 1 µM is 12%.
Still for that read-out and setting: the figure for `CC(Oc1cc(-c2ccc(C(=O)NCCCN3CCCC3)cc2)cnc1N)c1cccc(F)c1C(F)(F)F` (centres unmarked) [Example I-452, 4-{6-Amino-5-[1-(3-fluoro-2-trifluoromethyl-phenyl)-ethoxy]-pyridin-3-yl}-N-(3-pyrrolidin-1-yl-propyl)-benzamide] is 3%; for `CC(Oc1cc(-c2ccc(C(=O)NCCCN3CCOCC3)cc2)cnc1N)c1cccc(F)c1C(F)(F)F` (centres unmarked) [Example I-453, 4-{6-Amino-5-[1-(3-fluoro-2-trifluoromethyl-phenyl)-ethoxy]-pyridin-3-yl}-N-(3-morpholin-4-yl-propyl)-benzamide] it is 10%.
For the compound `CC(Oc1cc(C#N)cnc1N)c1c(Cl)ccc(C#N)c1Cl` (centres unmarked) [Example I-455, 6-Amino-5-[1-(2,6-dichloro-3-cyano-phenyl)-ethoxy]-nicotinonitrile], the inhibition at 1 µM came to 8%.
Turning to `CC(Oc1cc(CN)cnc1N)c1c(Cl)ccc(F)c1Cl` (centres unmarked) [Example I-456, 5-Aminomethyl-3-[1-(2,6-dichloro-3-fluoro-phenyl)-ethoxy]-pyridin-2-ylamine], the inhibition at 1 µM turned out to be 0%.
Still for that read-out and setting: the figure for `CC(Oc1cc(CNC(=O)N2CCC[C@@H]2CN2CCCC2)cnc1N)c1c(Cl)ccc(F)c1Cl` (stereo partly drawn) [Example I-457, (R)-2-Pyrrolidin-1-ylmethyl-pyrrolidine-1-carboxylic acid {6-amino-5-[1-(2,6-dichloro-3-fluoro-phenyl)-ethoxy]-pyridin-3-ylmethyl}-amide] is 1%.
On the same count and under the same terms, then `CC(Oc1cc(CNS(C)(=O)=O)cnc1N)c1c(Cl)ccc(F)c1Cl` (centres unmarked) [Example I-458, N-{6-Amino-5-[1-(2,6-dichloro-3-fluorophenyl)-ethoxy]-pyridin-3-ylmethyl}-methanesulfonamide], with 0%; and `CC(=O)NCc1cnc(N)c(OC(C)c2c(Cl)ccc(F)c2Cl)c1` (centres unmarked) [Example I-459, N-{6-Amino-5-[1-(2,6-dichloro-3-fluoro-phenyl)-ethoxy]-pyridin-3-ylmethyl}-acetamide], with 2%.
`Cc1ccc(S(=O)(=O)NCc2cnc(N)c(OC(C)c3c(Cl)ccc(F)c3Cl)c2)cc1` (centres unmarked) [Example I-460, N-{6-Amino-5-[1-(2,6-dichloro-3-fluoro-phenyl)-ethoxy]-pyridin-3-ylmethyl}-4-methyl-benzenesulfonamide]: the inhibition at 1 µM was found to be 9%.
Still for that read-out and setting: then `CC(Oc1cc([C@H](O)CO)cnc1N)c1c(Cl)ccc(F)c1Cl` (stereo partly drawn) [Example I-462, (S)-1-{6 Amino-5-[1-(2,6-dichloro-3-fluoro-phenyl)-ethoxy]-pyridin-3-yl}-ethane-1,2-diol], with 2%; and `CC(Oc1cc([C@@H](O)CO)cnc1N)c1c(Cl)ccc(F)c1Cl` (stereo partly drawn) [Example I-463, (R)-1-{6-Amino-5-[1-(2,6-dichloro-3-fluoro-phenyl)-ethoxy]-pyridin-3-yl}-ethane-1,2-diol], with 2%; and `COc1c(F)cccc1COc1cc(Br)cnc1N` [Example I-468, 5-Bromo-3-(3-fluoro-2-methoxy-benzyloxy)-pyridin-2-ylamine], with 8%.
Same read-out and setting: then `COc1c(F)cccc1C(C)Oc1cc(Br)cnc1N` (centres unmarked) [Example I-469, 5-Bromo-3-[1-(3-fluoro-2-methoxy-phenyl)-ethoxy]-pyridin-2-ylamine], with 7%; and `COc1c(F)cccc1COc1cc(-c2ccc(C(=O)N3C[C@@H](C)N[C@@H](C)C3)cc2)cnc1N` [Example I-470, (4-{6-Amino-5-(3-fluoro-2-methoxy-benzyloxy)-pyridin-3-yl]-phenyl}-((3R,5S)-3,5-dimethyl-piperazin-1-yl)-methanone], with 3%.
Same read-out and setting: the figure for `COc1c(F)cccc1C(C)Oc1cc(-c2ccc(C(=O)N3C[C@@H](C)N[C@@H](C)C3)cc2)cnc1N` (some centres unmarked) [Example I-471] is 1%; for `CC(Oc1cc(Br)cnc1N)c1cccc(F)c1Cl` (centres unmarked) [Example I-486, Bromo-3-[1-(2-chloro-3-fluoro-phenyl)-ethoxy]-pyridin-2-ylamine] it is 0%.

For a further test, the target named is T2, GST fusion protein containing the Met kinase domain (Homo sapiens, UniProt P08581).
T2 construct: Purified GST fusion protein containing the Met kinase domain, SUGEN, Inc
T2 sequence (P08581 1078-1345 limits assumed): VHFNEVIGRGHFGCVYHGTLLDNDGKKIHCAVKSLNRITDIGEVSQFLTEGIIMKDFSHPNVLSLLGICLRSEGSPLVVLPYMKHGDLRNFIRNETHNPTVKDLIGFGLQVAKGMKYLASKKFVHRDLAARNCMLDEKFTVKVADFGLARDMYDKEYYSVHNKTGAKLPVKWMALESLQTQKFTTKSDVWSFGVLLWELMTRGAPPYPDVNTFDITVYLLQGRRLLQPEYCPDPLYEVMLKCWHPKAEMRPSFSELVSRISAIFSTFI
Put plainly: MET transphosphorylation assay (ELISA, poly(glu-tyr) substrate). Type of test: biochemical.
Conditions: not given
The compound `CN(C)[C@H]1CCN(C(=O)c2ccc(-c3cnc(N)c(OCc4ccc(F)cc4Cl)c3)cc2)C1` [Example I-205] showed a pIC50 of 5.09.
For the compound `CN(C)CCS(=O)(=O)Nc1cccc(-c2cnc(N)c(OCc3c(F)ccc(F)c3Cl)c2)c1` [Example I-259, 2-Dimethylamino-ethanesulfonic acid {3-[6-amino-5-(2-chloro-3,6-difluoro-benzyloxy)-pyridin-3-yl]-phenyl}-amide], the pIC50 is 5.82. This pIC50 lies 0.73 log units higher than the previous one.
